Data set [1] has as its target recombinant M. abscessus wild-type DNA gyrase (Mycobacteroides abscessus, UniProt B1ME45+B1ME58). In words: biochemical. Details: species or system Mycobacterium abscessus.
The test system of data set [2] is M. abscessus subsp. abscessus ATCC 19977. The data set can be described thus: Time-concentration kill assay, planktonic cultures. The format is cell-based, Mycobacterium abscessus. The conditions noted are these: 1×, 4×, 8× MIC; CFU after 2 and 3 days.
Protocol: At 0, 2, and 3 days, tubes were vortexed, and 20 μl of the cultures was transferred to round-bottom 96-well plates containing 180 μl of phosphate-buffered saline (PBS) (10010023; Thermo Fisher, USA) with 0.025% Tween 80 (PBS/Tween 80) for 10-fold serial dilution. To prevent compound carryover effects, we plated out serially diluted samples onto 7H10 agar supplemented with 0.4% activated charcoal (C9154; Sigma-Aldrich, USA) for all time points as described ([48]). CFU were enumerated after 4 days of incubation at 37°C.
Data set [3] can be described thus: In vivo mouse pharmacokinetics. The conditions noted are these: CD-1 mice. The procedure:
All animal experiments were approved by the Center for Discovery and Innovation, Institutional Animal Care and Use Committee, and were conducted in compliance with their guidelines. Female CD-1 mice were weighed and received a single dose of […] via the intravenous (i.v.) (5 mg/kg of body weight), oral (p.o.) (25 mg/kg), or subcutaneous (s.c.) (25 mg/kg) dosing route. The compound was formulated as a solution in 5% N,N-dimethylacetamide (DMA)/95% Milli-Q water vehicle. Blood samples were serially collected via the tail snip from each individual mouse at 0.017, 0.25, 1, 3, 5, and 8 h postdose following i.v. dosing and at 0.5, 1, 3, and 5 h postdose following p.o. and s.c. dosing. Blood (50 μl) was collected in capillary Microvette K2EDTA tubes (16.444.100; Sarstedt, Inc.) and kept on ice prior to centrifugation at 1,500 × g for 5 min. The supernatant (plasma) was transferred into a 96-well plate and stored at −80°C.
Liquid chromatography-tandem mass spectrometry (LC-MS/MS) analysis was performed on a Sciex Applied Biosystems Qtrap 6500+ triple-quadrupole mass spectrometer coupled to a Shimadzu Nexera 2 high-pressure liquid chromatography (HPLC) system to quantify each drug in plasma. Neat 1 mg/ml DMSO stocks for 844-TFM were serial diluted in 50:50 acetonitrile (ACN)/water to create standard curves and quality control (QC) spiking solutions. Standards and QCs were created by adding 10 μl of spiking solutions to 90 μl of drug-free plasma (CD-1 K2EDTA Mouse; Bioreclamation IVT). Twenty microliters of control, standard, QC, or study sample were added to 200 μl of ACN/methanol (MeOH) 50:50 protein precipitation solvent containing internal standard (10 ng/ml verapamil). Extracts were vortexed for 5 min and centrifuged at 4,000 rpm for 5 min. One hundred microliters of supernatant was transferred for HPLC-MS/MS analysis and diluted with 100 μl of Milli-Q deionized water.
Chromatography was performed on an Agilent Zorbax SB-C8 column (2.1 × 30 mm; particle size, 3.5 μm) using a reverse-phase gradient. Milli-Q deionized water with 0.1% formic acid was used for the aqueous mobile phase and 0.1% formic acid in ACN for the organic mobile phase. Multiple-reaction monitoring of precursor/product transitions in electrospray positive-ionization mode was used to quantify the analytes. The following multiple reaction monitoring (MRM) transitions were used for 844-TFM (459.10/133.00) and verapamil (455.4/165.2). Sample analysis was accepted if the concentrations of the quality control samples were within 20% of the nominal concentration. Data processing was performed using Analyst software (version 1.6.2; Applied Biosystems Sciex).

Data set [4] has as its system M. abscessus complex strains. In words: MIC across reference strains and clinical isolates. Type of data set: cell-based, Mycobacterium abscessus. The method, then: MIC was determined using the broth microdilution method in 96-well plates as described previously ([47]). Briefly, a 10-point 2-fold serial dilution of compounds was performed in 96-well plates (Costar 3370; Corning, USA) starting at twice the desired highest concentration. […] One hundred microliters of the bacterial suspension was seeded onto the 96-well plates containing 100 μl of the serially diluted compounds to give a final volume of 200 μl in each well with the final OD600 of 0.005. The plates were sealed with parafilm, placed onto wet paper towels in a lock-lock box and incubated for 3 days at 37°C with orbital shaking at 90 rpm. […] Absorbance values at day 3 were subtracted from the day 0 readout. Percent growth inhibition was calculated by dividing the absolute absorbance value of treated cells with untreated control and multiplying by 100. CLR was included in all MIC experiments as a positive control to monitor assay reproducibility. MIC was defined as 90% of growth inhibition relative to untreated controls.

Data set [5] has as its target GyrA D91N mutant recombinant M. abscessus DNA gyrase (Mycobacteroides abscessus, UniProt B1ME45+B1ME58, D91N). The format is biochemical, Mycobacterium abscessus. The conditions noted are these: GyrA D91N mutant DNA gyrase, up to 50 μM.
The subject of data set [6] is M. abscessus subsp. abscessus ATCC 19977. In words: Selection and characterization of spontaneous resistant mutants. Type of data set: cell-based, Mycobacterium abscessus. The conditions noted are these: ATCC 19977, agar with 8× MIC.
Data set [7] relates to M. abscessus subsp. abscessus ATCC 19977 biofilm. The data set can be described thus: Antibiofilm activity, MBEC biofilm assay. The conditions noted are these: 1×, 4×, 8× MIC; surface-attached CFU after 2 and 3 days. Type of data set: cell-based, Mycobacterium abscessus. The method, then: The antibiofilm activity of 844 and 844-TMF was determined employing the MBEC 96-well Biofilm assay kit (19111; Innovotech, Edmonton, AB, Canada) as described previously ([15]) with minor modifications. Briefly, exponentially growing M. abscessus subsp. abscessus ATCC 19977 cultures were spun down at 3,200 × g for 10 min and washed with 7H9 broth without Tween 80 (‘7H9’). Bacteria were resuspended in ‘7H9’ to an OD600 of 0.0125, and 150 μl was dispensed into the wells of Innovotech 96-well plates. Pegs (protruding from the specialized lids of the Innovotech multiwell plates) were inserted into the bacterial suspensions in the wells, and the cultures were grown 24 h with shaking at 110 rpm at 37°C to allow attachment and growth of the bacteria on the surface of the pegs. […] Biofilm growth on the pegs was measured by CFU determination. The pegs were washed in 200 μl ‘7H9’ medium, removed, and placed in 1.7-ml microcentrifuge tubes (87003-294; VWR, Radnor, PA, USA) containing 500 μl PBS/Tween 80 (0.025%). The tubes were vortexed at 2,000 rpm for 90 s to detach and suspend the bacteria from the pegs before samples were serially diluted and plated onto 7H10 agar supplemented with 0.4% activated charcoal to determine CFU/peg.

[8] abbreviates: female, mouse, plasma, iv, i.v. 5 mg/kg, average (SD).

Data on one molecule can be found in article PMC8284461, “Piperidine-4-Carboxamides Target DNA Gyrase in Mycobacterium abscessus” (Antimicrobial Agents and Chemotherapy, 2021).

The term IC50 denotes the concentration at which inhibition is half-maximal. One may read the clearance as the volume of plasma or blood freed of the substance per unit of time. A low value points to a low capacity for elimination. A word on the AUC: it is the area under the concentration-time curve, a measure of exposure. Usually half-life stands for how long it takes for the measured level to halve. Usually bioavailability stands for dose-corrected exposure relative to a reference, in per cent.

In brackets after ≈: the same amount, converted by molar mass. Like-named read-outs stand apart in the source and are kept apart here.

Sequence of recombinant M. abscessus wild-type DNA gyrase (B1ME58 entry or part of it): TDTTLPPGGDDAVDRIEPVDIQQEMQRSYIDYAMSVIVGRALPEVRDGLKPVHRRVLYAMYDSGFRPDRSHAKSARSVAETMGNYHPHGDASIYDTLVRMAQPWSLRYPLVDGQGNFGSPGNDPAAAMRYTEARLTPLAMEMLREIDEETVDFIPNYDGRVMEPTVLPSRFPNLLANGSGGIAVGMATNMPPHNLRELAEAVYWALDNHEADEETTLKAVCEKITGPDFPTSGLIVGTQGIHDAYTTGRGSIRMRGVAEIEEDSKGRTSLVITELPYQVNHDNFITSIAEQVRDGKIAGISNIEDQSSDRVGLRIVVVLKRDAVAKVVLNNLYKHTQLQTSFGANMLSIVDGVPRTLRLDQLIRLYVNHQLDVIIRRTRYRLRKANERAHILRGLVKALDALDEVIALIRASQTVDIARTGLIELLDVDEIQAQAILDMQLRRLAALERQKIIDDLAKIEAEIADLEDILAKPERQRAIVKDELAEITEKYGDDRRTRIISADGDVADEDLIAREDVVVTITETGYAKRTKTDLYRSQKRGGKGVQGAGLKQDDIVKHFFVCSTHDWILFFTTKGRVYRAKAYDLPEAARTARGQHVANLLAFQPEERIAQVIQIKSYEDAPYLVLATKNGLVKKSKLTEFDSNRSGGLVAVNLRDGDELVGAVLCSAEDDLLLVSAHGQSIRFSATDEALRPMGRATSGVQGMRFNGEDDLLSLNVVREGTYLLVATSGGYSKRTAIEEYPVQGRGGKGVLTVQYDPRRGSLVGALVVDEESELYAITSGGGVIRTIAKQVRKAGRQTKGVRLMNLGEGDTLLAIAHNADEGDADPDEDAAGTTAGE
Sequence of recombinant M. abscessus wild-type DNA gyrase (B1ME45 entry or part of it): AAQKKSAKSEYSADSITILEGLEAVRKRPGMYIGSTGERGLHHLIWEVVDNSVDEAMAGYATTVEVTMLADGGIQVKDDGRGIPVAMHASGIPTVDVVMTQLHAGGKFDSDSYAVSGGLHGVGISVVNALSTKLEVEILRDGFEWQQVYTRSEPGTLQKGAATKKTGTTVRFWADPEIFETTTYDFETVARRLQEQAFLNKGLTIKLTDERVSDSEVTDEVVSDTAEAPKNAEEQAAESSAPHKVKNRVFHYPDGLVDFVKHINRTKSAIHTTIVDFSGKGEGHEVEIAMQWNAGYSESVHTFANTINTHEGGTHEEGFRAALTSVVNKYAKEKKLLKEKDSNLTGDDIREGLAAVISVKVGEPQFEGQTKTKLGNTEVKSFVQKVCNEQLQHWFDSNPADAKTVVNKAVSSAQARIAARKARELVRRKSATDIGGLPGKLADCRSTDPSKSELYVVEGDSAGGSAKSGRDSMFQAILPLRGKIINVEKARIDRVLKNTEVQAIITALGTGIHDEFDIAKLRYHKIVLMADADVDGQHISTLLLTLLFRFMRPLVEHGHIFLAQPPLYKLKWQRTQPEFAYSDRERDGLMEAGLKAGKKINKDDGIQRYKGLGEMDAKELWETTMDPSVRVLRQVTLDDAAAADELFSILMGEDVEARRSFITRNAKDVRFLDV
Sequence of GyrA D91N mutant recombinant M. abscessus DNA gyrase (B1ME58 2-839, stated change not applied): as the sequence (B1ME58 entry or part of it) above
Sequence of GyrA D91N mutant recombinant M. abscessus DNA gyrase (B1ME45 2-675, stated change not applied): as the sequence (B1ME45 entry or part of it) above

On to `COc1ccc2nccc(NC(=O)C3CCN(CCc4ccc(C(F)(F)F)cc4)CC3)c2n1` [844-TFM], for which the “IC50 fold lower than the IC50 of parental 844” value in data set [1] came out at 2.4 fold. In addition, the IC50 in data set [1] (wild-type DNA gyrase, relaxed pBR322 substrate, read-out: IC50, supercoiling activity) is 1900 nM. In addition, in data set [2], the “bactericidal activity in planktonic cultures” value is on record as “bactericidal”. For the same molecule, in data set [3] (i.v. 5 mg/kg, average (SD)), the V is given as 0.811 (0.221) liter/kg. The molecule also gave a clearance in data set [3] (setting [8]) of 10.6 mL/min/kg. In addition, in data set [3] (setting [8]), the k el was 0.000192 s⁻¹. The AUC in data set [3] (female, mouse, plasma, iv, i.v. 5 mg/kg, average (SD), read-out: AUC i.v.) is 5630 ng·h/mL; in data set [3] (female, mouse, plasma, po, p.o. 25 mg/kg, average (SD), read-out: AUC p.o.), 58 ng·h/mL; in data set [3] (female, mouse, plasma, sc, s.c. 25 mg/kg, average (SD), read-out: AUC s.c.), 1170 ng·h/mL. In data set [3] (female, mouse, plasma, iv, i.v. 5 mg/kg, average (SD), read-out: elimination half-life (converted)), the half-life is 1.03 h. In addition, the bioavailability in data set [3] (female, mouse, plasma, oral, p.o. 25 mg/kg vs i.v. 5 mg/kg, read-out: p.o. bioavailability) was 0.05 to 0.2%; in data set [3] (female, mouse, plasma, po, p.o. 25 mg/kg vs i.v. 5 mg/kg, read-out: p.o. bioavailability), 0.15%; in data set [3] (female, mouse, plasma, sc, s.c. 25 mg/kg vs i.v. 5 mg/kg, read-out: s.c. bioavailability), 3%. Further, the MIC in data set [4] (Mycobacteroides abscessus, reference strains and clinical isolates of Table 1, read-out: MICs ranging across the M. abscessus complex strains) was in the range of 1.5 to 6 µM (≈ 0.688 to 2.75 µg/mL). For the same molecule, the “fold more potent than 844” value in data set [4] (whole-cell potency relative to 844) is around 8 fold. In data set [5], the “effect on supercoiling activity” value is recorded as “No inhibition”. Moreover, in data set [6], the “frequency of spontaneous resistance” value is reported as 10^−8 /CFU. In addition, the “bactericidal activity against M. abscessus grown as biofilm” value in data set [7] was “bactericidal”.
